Measured values: patent publication US20260258020A1, “CRYSTAL FORM OF PIPERAZINE AMIDE DERIVATIVE, PREPARATION METHOD THEREFOR AND USE THEREOF” (ZHEJIANG HISUN PHARMACEUTICAL CO., LTD., priority 2022, published 2026)

What was measured:
[1] = Fluidity test (angle of repose); type: physicochemical; settings: for fluidity compared to the amorphous form: conclusion from Table 8
Text: (§1) The amorphous form of the compound represented by Formula I prepared in Preparation Example, the crystal form A of the compound represented by Formula I prepared in Example 1, the crystal form B of the compound represented by Formula I prepared in Example 9, the crystal form C of the compound represented by Formula I prepared in Example 12, the crystal form D of the compound represented by Formula I prepared in Example 17, and the crystal form E of the compound represented by Formula I prepared in Example 20 were measured for angle of repose, and the specific results are shown in Table 8 below: […]

Hygroscopicity test = type: physicochemical; settings: for hygroscopicity: 75% RH and 25° C. for 24 h; for hygroscopicity compared to the amorphous form: conclusion from Table 9
Text: The amorphous form of the compound represented by Formula I prepared in Preparation Example, the crystal form A of the compound represented by Formula I prepared in Example 1, the crystal form B of the compound represented by Formula I prepared in Example 9, the crystal form C of the compound represented by Formula I prepared in Example 12, the crystal form D of the compound represented by Formula I prepared in Example 17, and the crystal form E of the compound represented by Formula I prepared in Example 20 were placed in an environment of 75% RH and 25° C. for 24 h and then each was weighed to calculate the hygroscopicity.

[2] = Stability test (purity and XRPD pattern after 30 days storage); type: physicochemical; settings: for stability compared to the amorphous form: conclusion from Table 6
Method: X-ray powder diffraction instrument and test conditions involved in the present disclosure: the model of the X-ray diffraction instrument was Rigaku MiniFlex-600 Cu target; the operation method included a scanning speed of 10°/min and scanning step width of 0.01°.
High-performance liquid chromatography (HPLC) test conditions involved in the present disclosure: the model of the liquid chromatograph was Agilent 1260; the chromatographic column was Welch XB C-18 250 mm*4.6 mm 3 μm; the detection wavelength was 260 nm; and the column temperature was 40° C.
The amorphous form of compound represented by Formula I prepared in the described preparation examples, the crystal form A of the compound represented by Formula I prepared in Example 1, the crystal form B of the compound represented by Formula I prepared in Example 9, the crystal form C of the compound represented by Formula I prepared in Example 12, the crystal form D of the compound represented by Formula I prepared in Example 17, and the crystal form E of the compound represented by Formula I prepared in Example 20 were placed under various conditions: 75% RH, 92.5% RH, 40° C., 60° C., and illumination for 30 days, the X-ray powder diffraction pattern and purity of each crystal form were determined, and the specific results are shown in Table 6.

Granularity test = type: physicochemical
Text: as §1, with “granularity,” for “angle of repose,”, “7” for “8”

RET kinase = RET kinase (Homo sapiens, UniProt P07949); settings: stated for WO2020/207419A1; cited from earlier work
Sequence of RET kinase (P07949 29-1114): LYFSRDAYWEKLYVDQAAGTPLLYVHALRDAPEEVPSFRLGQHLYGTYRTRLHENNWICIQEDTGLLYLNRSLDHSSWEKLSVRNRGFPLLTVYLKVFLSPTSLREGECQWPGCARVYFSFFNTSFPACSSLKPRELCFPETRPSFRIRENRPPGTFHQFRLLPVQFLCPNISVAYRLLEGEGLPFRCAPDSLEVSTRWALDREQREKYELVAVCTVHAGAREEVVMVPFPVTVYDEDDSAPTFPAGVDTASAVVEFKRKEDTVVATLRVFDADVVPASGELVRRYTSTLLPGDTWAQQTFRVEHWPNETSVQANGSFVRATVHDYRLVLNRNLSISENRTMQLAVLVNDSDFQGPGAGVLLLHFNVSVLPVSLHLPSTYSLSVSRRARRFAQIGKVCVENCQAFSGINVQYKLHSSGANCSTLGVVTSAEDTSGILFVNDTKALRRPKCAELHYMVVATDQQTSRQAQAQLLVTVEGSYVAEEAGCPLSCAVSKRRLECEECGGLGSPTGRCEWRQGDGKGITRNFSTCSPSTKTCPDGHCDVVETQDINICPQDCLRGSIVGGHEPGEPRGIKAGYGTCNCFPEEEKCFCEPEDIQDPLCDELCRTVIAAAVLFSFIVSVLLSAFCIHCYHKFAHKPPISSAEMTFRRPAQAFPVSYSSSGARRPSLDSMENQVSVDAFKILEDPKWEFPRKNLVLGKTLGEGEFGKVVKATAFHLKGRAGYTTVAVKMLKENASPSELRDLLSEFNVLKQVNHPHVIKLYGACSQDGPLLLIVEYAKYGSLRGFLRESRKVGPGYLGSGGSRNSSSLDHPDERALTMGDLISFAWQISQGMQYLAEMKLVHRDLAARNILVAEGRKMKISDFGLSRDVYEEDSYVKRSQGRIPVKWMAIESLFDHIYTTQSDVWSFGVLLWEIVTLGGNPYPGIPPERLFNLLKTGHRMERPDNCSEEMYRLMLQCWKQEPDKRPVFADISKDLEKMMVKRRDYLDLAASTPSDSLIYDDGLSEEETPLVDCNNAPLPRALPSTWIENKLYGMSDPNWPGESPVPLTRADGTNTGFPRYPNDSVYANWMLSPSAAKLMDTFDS

Cc1cc(Nc2cc(C)[nH]n2)nc(N2CC3CCC(C2)N3C(=O)c2ccc(-n3cc(F)cn3)nn2)n1 [amorphous form, (6-(4-fluoro-1H-pyrazol-1-yl)pyridazin-3-yl)(3-(4-methyl-6-((5-methyl-1H-pyrazol-3-yl)amino)pyrimidin-2-yl) 3,8-diazabicyclo[3.2.1]octane-8-yl) methanone, reference compound]
angle of repose ([1]; measurement 1): 43.8°
angle of repose ([1]; measurement 2): 44.3°
angle of repose ([1]; measurement 3): 43.4°
hygroscopicity (Hygroscopicity test): 0.45%
purity ([2]; day 0): 96.77
X-ray powder diffraction pattern after storage ([2]; day 30 at 40° C.): changes)
purity ([2]; day 30 at 40° C.): 96.17 (its
X-ray powder diffraction pattern after storage ([2]; day 30 at 60° C.): changes)
purity ([2]; day 30 at 60° C.): 95.98 (its
purity ([2]; day 30 under 75% RH): 95.94
purity ([2]; day 30 under 92.5% RH): 95.23
purity ([2]; day 30 under illumination): 94.37
D50 (granularity) (Granularity test): 3.52 μm
D90 (granularity) (Granularity test): 18.45 μm
granularity compared to crystal forms A, B, C, D and E (Granularity test; conclusion from Table 7): significantly smaller
D50 of amorphous form relative to the crystal form D50 (Granularity test; versus crystal forms A-E): not more than 12%
D90 of amorphous form relative to the crystal form D90 (Granularity test; versus crystal forms A-E): not more than 25%

Cc1cc(Nc2cc(C)[nH]n2)nc(N2CC3CCC(C2)N3C(=O)c2ccc(-n3cc(F)cn3)nn2)n1 [compound represented by formula I, (6-(4-fluoro-1H-pyrazol-1-yl)pyridazin-3-yl)(3-(4-methyl-6-((5-methyl-1H-pyrazol-3-yl)amino)pyrimidin-2-yl)-3,8-diazabicyclo[3.2.1]octan-8-yl) methanone]
effect of inhibiting RET kinase (RET kinase): good effect of inhibiting RET kinase

Cc1cc(Nc2cc(C)[nH]n2)nc(N2CC3CCC(C2)N3C(=O)c2ccc(-n3cc(F)cn3)nn2)n1 [crystal form A, (6-(4-fluoro-1H-pyrazol-1-yl)pyridazin-3-yl)(3-(4-methyl-6-((5-methyl-1H-pyrazol-3-yl)amino)pyrimidin-2-yl)-3,8-diazabicyclo[3.2.1]octan-8-yl) methanone]
fluidity compared to the amorphous form [1]: significantly superior
angle of repose ([1]; measurement 1): 32.5°
angle of repose ([1]; measurement 2): 31.9°
angle of repose ([1]; measurement 3): 32.2°
hygroscopicity (Hygroscopicity test): 0.02%
hygroscopicity compared to the amorphous form (Hygroscopicity test): significantly better
stability compared to the amorphous form [2]: better stability
purity ([2]; day 0): 99.85
purity ([2]; day 30 at 40° C.): 99.80
purity ([2]; day 30 at 60° C.): 99.77
purity ([2]; day 30 under 75% RH): 99.67
purity ([2]; day 30 under 92.5% RH): 99.48
purity ([2]; day 30 under illumination): 98.88
D50 (granularity) (Granularity test): 38.62 μm
D90 (granularity) (Granularity test): 95.11 μm

Cc1cc(Nc2cc(C)[nH]n2)nc(N2CC3CCC(C2)N3C(=O)c2ccc(-n3cc(F)cn3)nn2)n1 [crystal form B, (6-(4-fluoro-1H-pyrazol-1-yl)pyridazin-3-yl)(3-(4-methyl-6-((5-methyl-1H-pyrazol-3-yl)amino)pyrimidin-2-yl)-3,8-diazabicyclo[3.2.1]octan-8-yl) methanone]
fluidity compared to the amorphous form [1]: significantly superior
angle of repose ([1]; measurement 1): 33.4°
angle of repose ([1]; measurement 2): 34.1°
angle of repose ([1]; measurement 3): 34.2°
hygroscopicity (Hygroscopicity test): 0.05%
hygroscopicity compared to the amorphous form (Hygroscopicity test): significantly better
stability compared to the amorphous form [2]: better stability
purity ([2]; day 0): 99.80
purity ([2]; day 30 at 40° C.): 99.68
purity ([2]; day 30 at 60° C.): 99.62
purity ([2]; day 30 under 75% RH): 99.52
purity ([2]; day 30 under 92.5% RH): 99.23
purity ([2]; day 30 under illumination): 98.56
D50 (granularity) (Granularity test): 32.53 μm
D90 (granularity) (Granularity test): 86.77 μm

Cc1cc(Nc2cc(C)[nH]n2)nc(N2CC3CCC(C2)N3C(=O)c2ccc(-n3cc(F)cn3)nn2)n1 [crystal form C, (6-(4-fluoro-1H-pyrazol-1-yl)pyridazin-3-yl)(3-(4-methyl-6-((5-methyl-1H-pyrazol-3-yl)amino)pyrimidin-2-yl)-3,8-diazabicyclo[3.2.1]octan-8-yl) methanone]
fluidity compared to the amorphous form [1]: significantly superior
angle of repose ([1]; measurement 1): 33.8°
angle of repose ([1]; measurement 2): 33.9°
angle of repose ([1]; measurement 3): 33.2.°
hygroscopicity (Hygroscopicity test): 0.06%
hygroscopicity compared to the amorphous form (Hygroscopicity test): significantly better
stability compared to the amorphous form [2]: better stability
purity ([2]; day 0): 99.75
purity ([2]; day 30 at 40° C.): 99.51
purity ([2]; day 30 at 60° C.): 99.38
purity ([2]; day 30 under 75% RH): 99.45
purity ([2]; day 30 under 92.5% RH): 99.08
purity ([2]; day 30 under illumination): 98.22
D50 (granularity) (Granularity test): 31.58 μm
D90 (granularity) (Granularity test): 79.47 μm

Cc1cc(Nc2cc(C)[nH]n2)nc(N2CC3CCC(C2)N3C(=O)c2ccc(-n3cc(F)cn3)nn2)n1 [crystal form D, (6-(4-fluoro-1H-pyrazol-1-yl)pyridazin-3-yl)(3-(4-methyl-6-((5-methyl-1H-pyrazol-3-yl)amino)pyrimidin-2-yl)-3,8-diazabicyclo[3.2.1]octan-8-yl) methanone]
fluidity compared to the amorphous form [1]: significantly superior
angle of repose ([1]; measurement 1): 33.0°
angle of repose ([1]; measurement 2): 33.8°
angle of repose ([1]; measurement 3): 33.3°
hygroscopicity (Hygroscopicity test): 0.08%
hygroscopicity compared to the amorphous form (Hygroscopicity test): significantly better
stability compared to the amorphous form [2]: better stability
purity ([2]; day 0): 99.60
purity ([2]; day 30 at 40° C.): 99.42
purity ([2]; day 30 at 60° C.): 99.33
purity ([2]; day 30 under 75% RH): 99.35
purity ([2]; day 30 under 92.5% RH): 99.01
purity ([2]; day 30 under illumination): 98.23
D50 (granularity) (Granularity test): 33.64 μm
D90 (granularity) (Granularity test): 83.56 μm

Cc1cc(Nc2cc(C)[nH]n2)nc(N2CC3CCC(C2)N3C(=O)c2ccc(-n3cc(F)cn3)nn2)n1 [crystal form E, (6-(4-fluoro-1H-pyrazol-1-yl)pyridazin-3-yl)(3-(4-methyl-6-((5-methyl-1H-pyrazol-3-yl)amino)pyrimidin-2-yl)-3,8-diazabicyclo[3.2.1]octan-8-yl) methanone]
fluidity compared to the amorphous form [1]: significantly superior
angle of repose ([1]; measurement 1): 34.2°
angle of repose ([1]; measurement 2): 35.1°
angle of repose ([1]; measurement 3): 34.8°
hygroscopicity (Hygroscopicity test): 0.05%
hygroscopicity compared to the amorphous form (Hygroscopicity test): significantly better
stability compared to the amorphous form [2]: better stability
purity ([2]; day 0): 99.76
purity ([2]; day 30 at 40° C.): 99.70
purity ([2]; day 30 at 60° C.): 99.65
purity ([2]; day 30 under 75% RH): 99.60
purity ([2]; day 30 under 92.5% RH): 99.50
purity ([2]; day 30 under illumination): 98.65
D50 (granularity) (Granularity test): 30.36 μm
D90 (granularity) (Granularity test): 75.89 μm
